Laboratory results taken from patent publication US8580965B2, “Substituted sulfonamide compounds” (Gruenenthal GmbH, priority 2006, dated 2013).
Structures can show the parent of a compound that is named as a salt.

Columns and labels:
[1] = biological target: T1, human B1R receptor (bradykinin 1 receptor) (Homo sapiens, UniProt P46663); experiment: FLIPR Ca2+ assay (Fluo-4) on CHO K1 cells stably transfected with the human B1R gene; % activation and % inhibition at 10 μM; format: cell-based; conditions: CHO K1 hB1R cells, Ca2+ inflow after 0.5 nM Lys-Des-Arg9-bradykinin; for inhibition at 10 µM: CHO-K1, test substance 10 μM, read-out: B1R antagonism, human [10 μM] % inhibition
T1 construct: host or cells: CHO K1 cells (hB1R cells)
T1 sequence (P46663 1-353): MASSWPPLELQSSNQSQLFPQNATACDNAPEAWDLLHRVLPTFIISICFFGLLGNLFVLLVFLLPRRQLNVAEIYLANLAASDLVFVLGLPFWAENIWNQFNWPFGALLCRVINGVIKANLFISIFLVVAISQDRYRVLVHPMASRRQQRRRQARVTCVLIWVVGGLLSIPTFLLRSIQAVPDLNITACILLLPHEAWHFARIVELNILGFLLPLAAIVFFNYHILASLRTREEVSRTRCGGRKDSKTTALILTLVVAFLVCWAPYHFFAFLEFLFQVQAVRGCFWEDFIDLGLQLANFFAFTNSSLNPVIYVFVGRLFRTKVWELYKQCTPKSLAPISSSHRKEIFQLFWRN
Procedure, shortened: (§1)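 CHO K1 cells stably expressing human or rat B1R, Fluo-4 loaded, read by FLIPR (peak fluorescence). Compound at 10 µM first gives % activation versus agonist; after 10 min, agonist (human: 0.5 nM Lys-Des-Arg9-bradykinin; rat: 100 nM Des-Arg9-bradykinin) gives % inhibition relative to maximal inhibition.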

[2] = biological target: T2, B1R receptor of the rat (bradykinin 1 receptor) (Rattus norvegicus, UniProt P97583); experiment: FLIPR Ca2+ assay (Fluo-4) on CHO K1 cells stably transfected with the B1R gene of the rat; % activation and % inhibition at 10 μM; format: cell-based; conditions: CHO K1 rB1R cells, Ca2+ inflow after 100 nM Des-Arg9-bradykinin; for inhibition at 10 µM: CHO-K1, test substance 10 μM, read-out: B1R antagonism, rat [10 μM] % inhibition
T2 construct: host or cells: CHO K1 cells (rB1R cells)
T2 sequence (P97583 1-337): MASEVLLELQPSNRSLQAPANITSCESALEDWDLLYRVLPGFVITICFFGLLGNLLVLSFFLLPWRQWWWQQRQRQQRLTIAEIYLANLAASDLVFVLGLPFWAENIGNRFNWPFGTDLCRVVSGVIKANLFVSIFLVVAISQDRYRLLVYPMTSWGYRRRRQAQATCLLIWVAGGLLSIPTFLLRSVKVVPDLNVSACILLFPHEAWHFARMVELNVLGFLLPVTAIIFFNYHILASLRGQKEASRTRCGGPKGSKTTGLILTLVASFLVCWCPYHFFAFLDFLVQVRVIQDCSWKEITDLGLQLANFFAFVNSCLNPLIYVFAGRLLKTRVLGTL
Procedure, shortened: as §1

Row | Compound | B1R antagonism, human [10 μM] % inhibition ([1]; test substance 10 μM) [%] | B1R antagonism, rat [10 μM] % inhibition ([2]; test substance 10 μM) [%] | inhibition at 10 µM [1] [%] | inhibition at 10 µM [2] [%]
1 | Cc1cc(S(=O)(=O)N2CCCCC2CCC(=O)N2CCC(O)(c3cccnc3)CC2)c(C)cc1Cl (centres unmarked) [Example 122, 3-(1-(4-chloro-2,5-dimethylphenylsulfonyl)piperidin-2-yl)-1-(4-hydroxy-4-(pyridin-3-yl)piperidin-1-yl)propan-1-one] | 98.39 | 97.87 |  | 
2 | O=C(CCC1CCCCN1S(=O)(=O)c1cccc(C(F)(F)F)c1)N1CCC(O)(c2ccc(Br)cc2)CC1 (centres unmarked) [Example 123, 1-(4-(4-bromophenyl)-4-hydroxypiperidin-1-yl)-3-(1-(3-(trifluoromethyl)phenylsulfonyl)piperidin-2-yl)propan-1-one] |  |  | 47.9 | 54.7
3 | CN(c1ccccc1CCC(=O)N1CCC(O)(c2ccc(Cl)c(C(F)(F)F)c2)CC1)S(=O)(=O)c1ccc(Cl)c(Cl)c1 [Example 124, 3,4-dichloro-N-(2-(3-(4-(4-chloro-3-(trifluoromethyl)phenyl)-4-hydroxypiperidin-1-yl)-3-oxopropyl)phenyl)-N-methylphenylsulfonamide] |  |  | 41 | 61.6
4 | CN(c1ccccc1CCC(=O)N1CCC(O)(c2cccnc2)CC1)S(=O)(=O)c1ccc(Cl)c(Cl)c1 [Example 125, 3,4-dichloro-N-(2-(3-(4-hydroxy-4-(pyridin-3-yl)piperidin-1-yl)-3-oxopropyl)phenyl)-N-methylphenylsulfonamide] |  |  | 93.2 | 91.4
5 | COc1cc(C)c(S(=O)(=O)N2CCCCC2COCC(=O)N2CCC(O)(c3cccnc3)CC2)c(C)c1 (centres unmarked) [Example 127, 1-(4-hydroxy-4-(pyridin-3-yl)piperidin-1-yl)-2-((1-(4-methoxy-2,6-dimethylphenylsulfonyl)piperidin-2-yl)methoxy)ethanone] |  |  | 104 | 101
6 | COc1cc(C)c(S(=O)(=O)N2Cc3ccccc3C[C@H]2COCC(=O)N2CCC(O)(c3cccnc3)CC2)c(C)c1 [Example 128, (S)-1-(4-hydroxy-4-(pyridin-3-yl)piperidin-1-yl)-2-((2-(4-methoxy-2,6-dimethylphenylsulfonyl)-1,2,3,4-tetrahydroisoquinolin-3-yl)methoxy)ethanone] |  |  | 101 | 98.8
7 | O=C(COC[C@@H]1Cc2ccccc2CN1S(=O)(=O)c1ccc(Cl)cc1Cl)N1CCC(O)(c2cccnc2)CC1 [Example 129, (S)-2-((2-(2,4-dichlorophenylsulfonyl)-1,2,3,4-tetrahydroisoquinolin-3-yl)methoxy)-1-(4-hydroxy-4-(pyridin-3-yl)piperidin-1-yl)ethanone] |  |  | 103 | 97.3
8 | COc1cc(C)c(S(=O)(=O)N(CCOCC(=O)N2CCC(O)(c3cccnc3)CC2)Cc2ccccc2)c(C)c1 [Example 130, N-benzyl-N-(2-(2-(4-hydroxy-4-(pyridin-3-yl)piperidin-1-yl)-2-oxoethoxy)ethyl)-4-methoxy-2,6-dimethylphenylsulfonamide] |  |  | 103 | 98.6
9 | O=C(COCC1Cc2ccccc2CN1S(=O)(=O)c1ccc(Cl)cc1Cl)N1CCC(O)(c2cccnc2)CC1 (centres unmarked) [Example 131, 2-((2-(2,4-dichlorophenylsulfonyl)-1,2,3,4-tetrahydroisoquinolin-3-yl)methoxy)-1-(4-hydroxy-4-(pyridin-3-yl)piperidin-1-yl)ethanone hydrochloride] |  |  | 102 | 100
10 | COc1cc(C)c(S(=O)(=O)N(C)CCOCC(=O)N2CCC(O)(c3cccc(C(F)(F)F)c3)CC2)c(C)c1 [Example 132, N-(2-(2-(4-hydroxy-4-(3-(trifluoromethyl)phenyl)piperidin-1-yl)-2-oxoethoxy)ethyl)-4-methoxy-N,2,6-trimethylphenylsulfonamide] |  |  | 101 | 99.1
